Reference: US10933043B2, “Methods of treating neurodevelopmental diseases and disorders” (Deakin University, priority 2014, dated 2021)
Entries after “also recorded” stand apart in the source; their conditions may differ. Blank lines part the entries; values can stand above or below the compound they belong to.

Assays:
[1] = system: aromatase cells in the amygdala; assay: Patch clamping of aromatase cells in the amygdala in brain slices of treated mice; type: in vivo, mouse
Excerpt: After behaviour studies, the animals were sacrificed and electrophysiological data were gathered from the brain slices by patch clamping of aromatase cells in the amygdala.

[2] = system: BPA exposed mice; assay: 10-HDA treatment of BPA exposed mice: social interaction and spontaneous grooming; type: in vivo, mouse
Protocol: As described in Example 2, mice with autistic-like behaviour were generated by mating female wild type FVBN mice with male CYP19-GFP mice and followed by subcutaneous injection of 50 […] of BPA on gestational days 10.5 to 14.5.
After weaning, control and BPA exposed pups were administered 10-HDA daily (0 and 500 μg/kg/day; dissolved in saline) by intraperitoneal injection for a maximum period of 6 weeks. Six litters were initially studied after 3 weeks of daily treatment for anxiety, memory, social interaction (FIG. 4A) and spontaneous grooming.
Data collection was conducted by investigators who were blind to the respective genotypes or treatment of any given animal. Two criteria were assessed as the basis for the behavioural studies, social interaction, and spontaneous grooming activity.
(§1) With regard to the social interaction study, the test mouse was placed in a social test box, a three-chambered clear plastic box with doorways in the dividing walls to allow access into each chamber. Each side-chamber contained a wire cage. The test mouse was evaluated over three sessions. In session 1, the test mouse was placed in the middle chamber and allowed to explore all 3 chambers for 10 min. In session 2, an unfamiliar same sex and age mouse (stranger 1) was enclosed in the wire cage either side of the central chamber, and the test mouse was allowed to explore the entire social test box for a period of 10 min. In session 3, a new unfamiliar mouse was placed in the previously empty wire cage such that the test mouse has a choice between the first, now familiar, already-investigated mouse (stranger 1) and the novel unfamiliar mouse (stranger 2). Mouse movements were recorded and tracked using the TopScan video tracking system. Durations in each chamber, time spent sniffing each wire cage, and the number of transitions between chambers were analysed.
Spontaneous Grooming activity was used as a measure of repetitive activity. The spontaneous grooming of the mice were recorded by the TopScan video tracking system during the session 1 or the 3 chamber studies described above. The duration and frequency of grooming were the parameters of measurements and analysed blind.
The male animals were then re-administered with either vehicle or 10-HDA as described above for 3 weeks, and subjected to behavioural studies again (FIG. 4C).

[3] = system: mice; assay: In utero BPA exposure of mice: offspring social interaction and stereology neuron counts; type: in vivo, mouse
Protocol: BPA (50 μg/kg) was thus administered to pregnant mice mid-gestation (i.e. embryonic days 10.5 to 14.5). […] A further study was conducted to examine the effects of BPA exposure on numbers of aromatase-GFP positive neurons in utero (FIG. 3). The medial amygdala is involved in social interaction and highly expressed aromatase.
as §1

[4] = system: aromatase; assay: Aromatase immunohistochemistry in human neuroblastoma SH-SY5Y cells exposed to BPA with or without 10-HDA; type: cell-based; settings: for effect on BPA-induced changes of aromatase expression pattern and neurites: 25 μg/L BPA + 1 mM 10 HDA
Protocol: FIG. 1: Effects of BPA and 10-HDA on aromatase expression in human neuroblastoma SH-SY5Y cells. Under normal conditions, SH-SY5Y cells express aromatase which is a membrane bound protein in endoplasmic reticulum, and appears as green punctate staining eventually distributed within the cell by immunohistochemistry. In the presence of 25 μg/L bisphenol A the aromatase became aggregates. The effects of bisphenol A can be ameliorated by addition of 10HDA. (a) +0 μg/L BPA (Vehicle)—Clear staining of aromatase (green) evenly distributed in the cytoplasm and along the neurites, as tiny “dots”. A lot of healthy cells evenly distributed over the surface area of the coverslip. B-tubulin (red) is highly expressed throughout the cytoplasm and neurites. […] A decrease in 13-tubulin expression was also observed in most cells that have lost their neurites. […] (c) +25 μg/L BPA+1 mM 10 HDA—Good neurite growth and even aromatase distribution throughout the cytoplasm was observed.
Human neuroblastoma SHY-SY-5Y cells were cultured were cultured in Dulbecco's Modified Eagle Medium supplemented with 10% heat-inactivated Fetal Bovine Serum, 1% penicillin and 1% L-Glutamine at 37° C. in a humidified atmosphere of 95% air and 5% CO2. The localization of aromatase in these cells can be detected using immunohistochemistry with antibody specific to aromatase. Under normal conditions, aromatase appears as punctuate staining throughout the cells, as it is a membrane bound protein in the endoplasmic reticulum.

[5] = system: primary cortical culture; assay: Primary cortical cell cultures of male mouse embryonic foetuses: dendritic length and spine densities; type: cell-based
Protocol: Primary cortical culture was prepared from male mouse foetuses at embryonic day 15.5. Specifically, the effects of BPA and 10-HDA on dendritic length and spine densities were assessed. Four test groups were assessed, mice treated with BPA, mice treated with 10-HDA, mice treated with BPA and 10-HDA, and a vehicle control. Ten neurons were measured and the experiments were duplicated.

[6] = system: differentiated mouse motor neuronal NSC-34 cells; assay: Protection of NSC-34 cells from toxic BPA exposure, MTT assay; type: cell-based; settings: 1 mM compound, 500 ng/ml of BPA, MTT assay 72 hours later
Protocol: To compare the respective activities of trans and cis 10-HDA 1 mM respectively of cis or trans 10-HDA in the presence of 500 ng/ml of BPA (toxic level) was added to differentiated mouse motor neuronal NSC-34 cells. Cell survival was determined by MTT assay 72 hours later.

[7] = system: neurons in the somatosensory cortex; assay: Dendritic length of neurons in the somatosensory cortex of treated mice; type: in vivo, mouse; settings: BPA exposed mice with 10-HDA treatment
[8] = BPA, male mouse embryonic day 15.5 cortical neurons

resistance of the neurons ([1]; BPA exposure, patch clamping of brain slices): reduced the resistance of the neurons | grooming ([2]; 50 μg/kg/day of BPA exposed male offspring): excessive grooming | ASD-like behaviours ([3]; BPA 50 μg/kg to pregnant mice embryonic days 10.5 to 14.5, WT male offspring): exhibit ASD-like behaviours | time spent with the stranger mice (social interaction) ([3]; BPA 50 μg/kg to pregnant mice embryonic days 10.5 to 14.5, male offspring vs vehicle exposed male or BPA exposed female offspring): significantly less time | numbers of aromatase-GFP positive neurons ([3]; BPA exposure in utero, standard Stereology method): significantly reduced | fewer neurons in the medial amygdala ([3]; male offspring exposed to BPA): 13.5% | β-tubulin expression ([4]; 25 μg/L BPA, SH-SY5Y cells that have lost their neurites): decrease | dendritic length of neurons [5, 8]: decreased | spine density [5, 8]: decreased
Compound: CC(C)(c1ccc(O)cc1)c1ccc(O)cc1 [BPA, bisphenol A]
neurites ([4]; 25 μg/L BPA, SH-SY5Y cells): Some populations of cells are starting to lose their neurites | aromatase localization/staining pattern ([4]; 25 μg/L BPA, SH-SY5Y cells, immunohistochemistry): aromatase forms aggregate and will lose its function; also recorded: could denature aromatase in vitro; also recorded: Aromatase aggregates start to form

Compound: O=C(O)/C=C\CCCCCCCO [cis 10-HDA]
cell survival (protection against BPA toxicity) [6]: does not protect against BP toxicity

Compound: O=C(O)/C=C/CCCCCCCO [10-HDA, 10-hydroxy-2-decenoic acid]
cell survival (protection against BPA toxicity) [6]: exhibits neuroprotective effects | resistance of the neurons ([1]; BPA exposed mice with 10-HDA treatment): restored resistance to normal | social interaction deficit and autistic-like behaviour ([2]; BPA exposed animals, 10-HDA 500 μg/kg/day intraperitoneal daily, 3 weeks): could ameliorate the social interaction deficit and autistic-like behaviour | excessive grooming ([2]; BPA exposed male offspring, 10-HDA treatment 3 weeks): ameliorated | social interaction after treatment withdrawal ([2]; BPA-exposed male animals, treatments withdrawn for 3 months): withdrawal led to presentation of social interaction deficit | effect on BPA-induced changes of aromatase expression pattern and neurites ([4]; SH-SY5Y cells): can protect against the denaturing effect of bisphenol A on aromatase | effect on BPA-induced changes of aromatase expression pattern and neurites ([4]; SH-SY5Y cells, listed as 10HDA): ameliorates the effects of BPA on the expression pattern of aromatase and neurites | dendritic length of the neurons [7]: restored the dendritic length of the neurons in the somatosensory cortex to normal length | effect against BPA on spine density and dendritic length ([5]; BPA and 10-HDA): reverse or protect against the effect of BPA | neurites and spines formation ([5]; primary cortical culture): has the capacity to stimulate neurites and spines formation
